Data set [1] addresses T1, MR (Homo sapiens, UniProt P08235).
T1 sequence (P08235 1-984): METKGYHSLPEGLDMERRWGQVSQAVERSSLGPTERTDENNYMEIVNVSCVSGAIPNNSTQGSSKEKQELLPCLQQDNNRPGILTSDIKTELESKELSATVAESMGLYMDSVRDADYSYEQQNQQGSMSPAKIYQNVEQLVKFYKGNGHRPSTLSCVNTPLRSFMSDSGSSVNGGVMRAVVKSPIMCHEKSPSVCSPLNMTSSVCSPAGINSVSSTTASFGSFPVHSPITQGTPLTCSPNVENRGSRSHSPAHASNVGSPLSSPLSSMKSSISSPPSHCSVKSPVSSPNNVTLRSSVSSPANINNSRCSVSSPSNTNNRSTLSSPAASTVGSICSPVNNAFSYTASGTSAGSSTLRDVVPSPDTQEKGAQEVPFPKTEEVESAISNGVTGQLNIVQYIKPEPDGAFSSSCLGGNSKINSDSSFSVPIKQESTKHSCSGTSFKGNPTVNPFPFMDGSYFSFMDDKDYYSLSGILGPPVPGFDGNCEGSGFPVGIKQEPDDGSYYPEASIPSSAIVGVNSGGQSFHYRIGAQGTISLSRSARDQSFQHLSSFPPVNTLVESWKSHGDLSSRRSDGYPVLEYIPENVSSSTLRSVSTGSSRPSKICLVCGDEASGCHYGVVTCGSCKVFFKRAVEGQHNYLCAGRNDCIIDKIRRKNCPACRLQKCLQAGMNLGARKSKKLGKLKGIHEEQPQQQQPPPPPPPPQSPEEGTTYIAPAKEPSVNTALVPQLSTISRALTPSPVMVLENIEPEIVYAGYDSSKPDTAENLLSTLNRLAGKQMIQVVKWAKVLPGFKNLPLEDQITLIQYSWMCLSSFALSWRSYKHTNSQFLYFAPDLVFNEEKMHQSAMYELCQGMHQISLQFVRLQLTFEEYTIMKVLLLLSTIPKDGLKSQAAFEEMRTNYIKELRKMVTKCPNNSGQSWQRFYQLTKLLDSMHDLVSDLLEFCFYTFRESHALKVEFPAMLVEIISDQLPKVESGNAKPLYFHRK
Kind of data set: Mineralocorticoid Receptor Binding Assay (Method 1), [3H]-aldosterone competition. Details: The full length human MR gene is cloned from a human kidney or human brain cDNA library; made in house; host or cells: SF9 insect cells (pAcHLT baculovirus transfer vector). As to conditions: human MR expressed in Sf9 cells, 0.5 nM [3H]-aldosterone. As to the method: Mineralocorticoid Receptor Binding Assay (Method 1):
The full length human MR gene is cloned from a human kidney or human brain cDNA library. Briefly, using synthetic oligonucleotide primers (Eli Lilly and Company, Indianapolis) directed to nucleotides 20-54 and 3700-3666 of the human MR, polymerase chain reaction (PCR) is performed under standard conditions using a human cDNA library. The PCR reaction is performed in a final volume of 50 μl containing about 1μl of a 50× stock solution of polymerase; about 1 μl of a 50× stock solution of dNTP; about 5μl of an appropriate PCR buffer; about 1 μl of each primer; about 5 μl of a H. kidney or H. brain cDNA library; and about 36 μl of water. The reaction is allowed to denature for about 30 seconds at 95 degrees Celsius, anneal for about 30 seconds at 55 degrees Celsius, and extend for about 5 minutes at 72 degrees Celsius, the sequence being repeated for a total of about 35 cycles. The desired PCR product (3.68 Kb) is confirmed by gel electrophoresis and subsequently cut from the gel and stored at about −20 degrees Celsius until extraction. To extract the cDNA product from the agarose gel, the QIAEX II Gel Extraction protocol (QIAGEN, Inc.) is employed according to the manufacturer's instructions. Following extraction, the MR cDNA is cloned into an appropriate cloning vector (Zero Blunt TOPO PCR Cloning Kit (Invitrogen, Inc.) and a pAcHLT-baculovirus transfer vector (B.D./Pharminogen), then expressed in SF9 insect cells, essentially according to manufacturer's instructions. Sf9 cells are grown at a scale where gram quantity cell pellets are obtained for subsequent use in the MR binding assay. Harvested cell pellets are lysed by repeated freeze-thaw cycles (about 4) in a suitable lysis buffer then centrifuged at about 1×10^3G (with the supernatant being saved for future assays).
MR binding assays are performed in a final total volume of about 250 μl containing about 20-25 μg of protein and 0.5 nM of [^3H]-aldosterone plus varying concentrations of test compound or vehicle. The assay binding buffer consists of 30 mM sodium molybdate, 30 mM of TRIS-HCl, 5 mM sodium phosphate, 5 mM sodium pyrophosphate, and about 10% glycerol, pH=7.5.
Briefly, assays are prepared at RT in 96-well Falcon 3072 plates, each well containing 210 μof binding buffer, 10 μl of […], 10 μl of test compound/vehicle, and 20 μl of the resuspended receptor protein extract. Incubations are carried out at 4 degrees Celsius with shaking for about 16 hours. 200 μl aliquots of each incubation are filtered onto Millipore HA 0.45 micron 96-well filter plates, pre-moistened with cold 30 mM TRIS-HCl. The filter plates are suctioned dry with vacuum and immediately washed 3× with cold 30 mM TRIS-HCl. The plates are then punched out and the amount of receptor-ligand complex is determined by liquid scintillation counting using 4 ml of Ready Protein Plus™ liquid scintillation cocktail.

Data set [2] has as its target T2, glucocorticoid receptor (Homo sapiens, UniProt P04150).
T2 construct: host or cells: A549 human lung epithelial cells
T2 sequence (P04150 1-777): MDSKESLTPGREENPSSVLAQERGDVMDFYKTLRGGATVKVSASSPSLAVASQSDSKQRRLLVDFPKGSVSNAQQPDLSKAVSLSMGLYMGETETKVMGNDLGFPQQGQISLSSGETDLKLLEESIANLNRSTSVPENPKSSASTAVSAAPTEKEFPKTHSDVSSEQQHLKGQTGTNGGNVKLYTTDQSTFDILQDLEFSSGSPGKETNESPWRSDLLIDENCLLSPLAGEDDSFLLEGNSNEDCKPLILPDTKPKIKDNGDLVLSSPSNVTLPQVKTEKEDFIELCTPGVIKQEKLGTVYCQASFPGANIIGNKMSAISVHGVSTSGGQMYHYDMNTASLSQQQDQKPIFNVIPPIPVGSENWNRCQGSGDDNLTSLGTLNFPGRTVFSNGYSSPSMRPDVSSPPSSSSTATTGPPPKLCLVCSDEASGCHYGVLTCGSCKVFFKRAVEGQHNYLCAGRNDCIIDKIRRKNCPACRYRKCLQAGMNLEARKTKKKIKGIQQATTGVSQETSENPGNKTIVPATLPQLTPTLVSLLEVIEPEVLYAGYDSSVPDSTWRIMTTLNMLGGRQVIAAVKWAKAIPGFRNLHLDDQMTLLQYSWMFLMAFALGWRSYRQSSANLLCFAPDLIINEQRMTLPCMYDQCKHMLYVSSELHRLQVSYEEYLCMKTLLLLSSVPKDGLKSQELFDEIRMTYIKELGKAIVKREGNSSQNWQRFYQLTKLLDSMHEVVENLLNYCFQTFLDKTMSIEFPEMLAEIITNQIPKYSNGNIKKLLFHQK
Kind of data set: Glucocorticoid Receptor Binding Assay (Method 1), [3H]-dexamethasone competition in A549 cell extract. The note with it: 1.86 nM [3H]-dexamethasone, read-out: GR Ki (nM) Method 1. The protocol: Glucocorticoid Receptor Binding Assay (Method 1):
A549 human lung epithelial cells (ATCC) are grown at a scale where gram quantity cell pellets are obtained. Harvested cell pellets are washed twice in cold phosphate buffered saline, centrifuged, and resuspended in cold assay binding buffer. The assay binding buffer consists of 10% glycerol, 50 mM Tris-HCl (pH7.2), 75 mM sodium chloride, 1.5 mM magnesium chloride, 1.5 mM EDTA, and 10 mM sodium molybdate. Cell suspensions were lysed via sonication, centrifuged, and the “extract” supernatant is snap frozen and stored at −80 C. until needed.
GR binding assays are performed in a final volume of 140 ul containing 50-200 ug of A549 cell extract and 1.86 nM [^3H]-dexamethasone (Amersham) plus varying concentrations of test compound or vehicle. Briefly, assays are prepared at RT in 96-well Fisher 3356 plates, each well containing 100 ul of A549 cell extract, 20 ul of [^3H]-dexamethasone, and 20 ul of test compound/vehicle. Incubations are carried out at 4 degrees Celsius for 16 hours. After incubation, 70 ul of 3× dextran-coated charcoal solution is added to each reaction, mixed, and incubated for 8 minutes at RT. 3×-dextran-coated charcoal solution consists of 250 ml assay binding buffer, 3.75 g Norit A charcoal (Sigma), and 1.25 g dextran T-70 (Amersham). Charcoal/unbound radioligand complexes are removed by centrifugation of the plate and 140 ul of supernatant from each well is transferred to another 96 well Optiplate (Packard Instruments). 200 ul of Microscint-20 scinillant (Packard Instruments) is added to each well and amount of receptor bound radioligand is determined using Packard Instruments TopCount instrument.

Data set [3] deals with T1, MR. Details: host or cells: patients with advanced CHF. The note with it: in combination with standard CHF therapy, patients suffering from advanced CHF; cited from earlier work.

What is called Ki is the dissociation constant of the complex between target and ligand, obtained from inhibition or displacement. As for `O=c1[nH]c2cc(C=C3c4ccccc4Sc4ccccc43)ccc2n1-c1cccnc1` [Example 17], in data set [1], the Ki is below 500 nM.

As to `CC(C)n1c(=O)[nH]c2cc(C=C3c4ccccc4Sc4ccccc43)ccc21` [Example 16], the Ki in data set [1] is below 500 nM.

A word on the melting point: it is the temperature of the solid-liquid transition. `Oc1cccc(C=C2c3ccccc3Cc3ccccc32)c1` [Example 19, 3-(10H-Anthracen-9-ylidenemethyl)-phenol]: the melting point is 195.8 °C. In addition, the Ki in data set [1] was below 500 nM. In addition, the Ki in data set [2] was below 10000 nM.

In the case of `COc1cccc(C=C2c3ccccc3Cc3ccccc32)c1` [Example 18, 9-(3-Methoxy-benzylidene)-9,10-dihydro-anthracene], the Ki was below 500 nM in data set [1] and below 10000 nM in data set [2].

Consider `CS(=O)(=O)Nc1cccc(C=C2c3ccccc3Oc3ccccc32)c1` [Example 20, N-(3-Xanthen-9-ylidenemethyl-phenyl)-methanesulfonamide], for which the values for the Ki in data set [1] and in data set [2] were below 500 nM and below 1000 nM, respectively.

Turning to `CC(=O)S[C@@H]1CC2=CC(=O)CC[C@]2(C)[C@H]2CC[C@@]3(C)[C@@H](CC[C@@]34CCC(=O)O4)[C@H]12` [spironolactone], in data set [3], the “reduced cardiac related mortality” value is 30% and the “reduced frequency of hospitalization” value was 35%.
